Laboratory results reported in BindingDB's records for patent US9670191 (Nerviano Medical Sciences, 2017).

These molecules were tested against T1, Cell division cycle 7-related protein kinase [58-574]/Protein DBF4 homolog A (Homo sapiens, UniProt O00311) (assay: Inhibition Assay of Cdc7 Activity).
T1 construct: 58-574
Description: The assay consists of the transfer of radioactivity labeled phosphate moiety by the kinase to an acceptor substrate. The resulting 33P-labeled product is separated from unreacted tracer, transferred into a scintillation cocktail and light emitted is measured in a scintillation counter. The inhibition assay of Cdc7/Dbf4 activity is performed according to the following protocol. The MCM2 substrate is trans-phosphorylated by the Cdc7/Dbf4 complex in the presence of ATP traced with γ33-ATP. The reaction is stopped by addition of Dowex resin in the presence of formic acid. Dowex resin particles capture unreacted γ33-ATP and drag it to the bottom of the well while 33P phosphorylated MCM2 substrate remains in solution. The supernatant is collected, transferred into Optiplate plates and the extent of substrate phosphorylation is evaluated by β counting. The inhibition assay of Cdc7/Dbf4 activity was performed in 96 wells plate according to the following protocol.

T1 sequence (O00311 58-574): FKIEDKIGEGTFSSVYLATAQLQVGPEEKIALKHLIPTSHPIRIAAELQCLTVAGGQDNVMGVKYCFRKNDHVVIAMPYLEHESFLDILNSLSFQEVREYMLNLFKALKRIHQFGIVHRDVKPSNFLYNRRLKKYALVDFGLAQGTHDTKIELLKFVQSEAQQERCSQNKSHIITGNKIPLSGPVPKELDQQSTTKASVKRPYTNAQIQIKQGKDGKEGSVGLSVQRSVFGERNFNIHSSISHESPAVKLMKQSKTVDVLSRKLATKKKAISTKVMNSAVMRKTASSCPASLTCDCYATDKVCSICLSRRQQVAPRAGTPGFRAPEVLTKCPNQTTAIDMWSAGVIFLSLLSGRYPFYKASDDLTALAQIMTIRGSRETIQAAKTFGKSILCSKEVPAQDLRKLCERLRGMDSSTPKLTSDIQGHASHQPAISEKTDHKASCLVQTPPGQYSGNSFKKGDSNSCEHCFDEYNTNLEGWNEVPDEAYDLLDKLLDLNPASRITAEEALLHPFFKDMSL
T1 sequence (Q9UBU7 whole entry, further chain): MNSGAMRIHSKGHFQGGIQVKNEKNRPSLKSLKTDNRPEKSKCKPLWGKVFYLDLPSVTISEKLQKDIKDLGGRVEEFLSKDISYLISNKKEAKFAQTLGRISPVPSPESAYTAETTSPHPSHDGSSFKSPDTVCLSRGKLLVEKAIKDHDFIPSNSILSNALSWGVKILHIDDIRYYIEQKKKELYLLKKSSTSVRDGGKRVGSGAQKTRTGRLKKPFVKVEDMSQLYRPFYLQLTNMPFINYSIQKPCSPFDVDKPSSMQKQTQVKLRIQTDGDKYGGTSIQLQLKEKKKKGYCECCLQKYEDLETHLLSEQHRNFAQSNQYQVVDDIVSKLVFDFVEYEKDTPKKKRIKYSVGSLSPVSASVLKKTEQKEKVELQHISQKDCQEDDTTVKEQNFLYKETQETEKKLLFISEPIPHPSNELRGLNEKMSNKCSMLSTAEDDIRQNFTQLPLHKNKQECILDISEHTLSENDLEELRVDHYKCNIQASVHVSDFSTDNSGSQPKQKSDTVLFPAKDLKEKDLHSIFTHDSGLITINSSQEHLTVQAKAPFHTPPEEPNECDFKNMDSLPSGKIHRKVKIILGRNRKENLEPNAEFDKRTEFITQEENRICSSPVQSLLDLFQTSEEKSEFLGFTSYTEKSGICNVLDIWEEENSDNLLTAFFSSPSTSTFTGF

IC50	Structure (SMILES)
< 1000 nM	NC(=O)c1cc(-c2ccncc2)[nH]c1-c1ccccc1[N+](=O)[O-] [US9670191, A13]
< 1000 nM	NC(=O)c1cc(-c2ccncc2)[nH]c1-c1cccc([N+](=O)[O-])c1 [US9670191, A14]
< 1000 nM	NC(=O)c1cc(-c2ccncc2)[nH]c1-c1ccc([N+](=O)[O-])cc1 [US9670191, A15]
< 1000 nM	N#Cc1cccc(-c2[nH]c(-c3ccncc3)cc2C(N)=O)c1 [US9670191, A23]
< 1000 nM	NC(=O)c1cc(-c2ccncc2)[nH]c1-c1ccncc1 [US9670191, C3]
< 1000 nM	NC(=O)c1cc(-c2ccnc(N)n2)[nH]c1-c1cccc2ccccc12 [US9670191, F5]
< 1000 nM	NC(=O)c1cc(-c2ccnc(N)n2)[nH]c1-c1ccc2ccccc2c1 [US9670191, F6]
< 1000 nM	NC(=O)c1cc(-c2ccnc(N)n2)[nH]c1-c1cccs1 [US9670191, G2]
< 1000 nM	NC(=O)c1cc(-c2ccnc(N)n2)[nH]c1-c1cc2ccccc2s1 [US9670191, G5]
< 1000 nM	NC(=O)c1cc(-c2ccnc(N)n2)[nH]c1-c1csc2ccccc12 [US9670191, G6]
< 1000 nM	NC(=O)c1cc(-c2ccnc(N)n2)[nH]c1-c1cc2ccccc2o1 [US9670191, G9]
< 1000 nM	NC(=O)c1cc(-c2ccnc(N)n2)[nH]c1-c1ccccn1 [US9670191, G12]
< 1000 nM	Cn1cc(-c2[nH]c(-c3ccnc(N)n3)cc2C(N)=O)c2ccccc21 [US9670191, G13]
< 1000 nM	Cn1c(-c2[nH]c(-c3ccnc(N)n3)cc2C(N)=O)cc2ccccc21 [US9670191, G14]
< 1000 nM	NC(=O)c1cc(-c2ccnc(N)n2)[nH]c1-c1ccc2sccc2c1 [US9670191, G15]
< 1000 nM	CNC(=O)c1cc(-c2ccnc(N)n2)[nH]c1-c1ccccc1 [US9670191, M1]
< 1000 nM	NC(=O)c1c(-c2ccccc2)[nH]c(-c2ccnc(N)n2)c1I [US9670191, N3]
< 1000 nM	C=Cc1c(-c2ccnc(N)n2)[nH]c(-c2ccccc2)c1C(N)=O [US9670191, O1]
< 1000 nM	NC(=O)c1c[nH]c(-c2ccncc2)c1 [US9670191, P1]
< 1000 nM	NC(=O)c1cc(-c2ccncc2)[nH]c1C1CCCCC1 [US9670191, Q1]
< 1000 nM	CC(C)(C)OC(=O)N1CCC(c2[nH]c(-c3ccncc3)cc2C(N)=O)CC1 [US9670191, Q2]
< 1000 nM	NC(=O)c1cc(-c2ccncc2)[nH]c1C1CCNCC1 [US9670191, Q3]
< 1000 nM	NC(=O)c1cc(-c2ccncc2)[nH]c1Br [US9670191, R1]
< 1000 nM	NC(=O)c1cc(-c2ccnc(N)n2)sc1-c1ccccc1 [US9670191, S1]
< 1000 nM	NC(=O)c1cc(-c2ccnc(N)n2)oc1-c1ccccc1 [US9670191, T1]
< 1000 nM	NC(=O)c1cc(-c2nc(N)ncc2F)[nH]c1-c1ccccc1 [US9670191, V1]
< 1000 nM	NC(=O)c1c(-c2ccccc2)[nH]c(-c2ccnc(N)n2)c1Cl [US9670191, Z1]
